Laboratory results: patent publication US11319305B2, “Pyrimidine sulfamide derivative and preparation method and medical application thereof” (SHIJIAZHUANG SAGACITY NEW DRUG DEVELOPMENT CO., LTD., priority 2017, dated 2022)

Columns and labels:
[1] = biological target: T1, human ETB receptor (Homo sapiens, UniProt P24530); test: In vitro antagonistic effect against human ETB receptor, Ca2+ signal in transfected CHO cells; format: cell-based; settings: response to 0.3 nM endothelin-1
T1 construct: host or cells: CHO cells
T1 sequence (P24530 27-442): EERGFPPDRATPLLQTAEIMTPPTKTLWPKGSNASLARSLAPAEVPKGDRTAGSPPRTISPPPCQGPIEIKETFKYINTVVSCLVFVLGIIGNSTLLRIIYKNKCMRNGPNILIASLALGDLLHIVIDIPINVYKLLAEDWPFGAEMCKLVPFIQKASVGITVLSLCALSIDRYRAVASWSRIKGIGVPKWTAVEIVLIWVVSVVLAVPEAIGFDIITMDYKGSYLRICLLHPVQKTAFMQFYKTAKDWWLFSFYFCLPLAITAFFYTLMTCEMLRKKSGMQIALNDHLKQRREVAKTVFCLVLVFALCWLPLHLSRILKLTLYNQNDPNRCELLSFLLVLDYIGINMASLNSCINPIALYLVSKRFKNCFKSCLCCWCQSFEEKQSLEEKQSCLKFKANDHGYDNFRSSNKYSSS
Description: Antagonist activity of the compound against human ETB receptors expressed in transfected CHO cells was evaluated by measuring the effect of the compound on the changes in the cytoplasmic Ca^2+ ion signal induced by human ETB receptor agonists. The functional activity of the ETB receptor antagonistic effect was tested in Eurofins-Cerep SA according to current standard procedures.
1. Cells were suspended in DMEM buffer (Invitrogen) and then distributed in 384-well plate (100 μL/well) at a density of 3×10^4 cells/well;
(§1) 2. Probenecid in HBSS buffer (Invitrogen) supplemented with 20 mM Hepes (Invitrogen) (pH 7.4) was mixed with fluorescent probe (Fluo4 NW, Invitrogen), the mixture was added to each wells, then balanced with cells at 37° C. for 60 minutes, and then balanced with cells at 22° C. for 15 minutes;
(§2) 3. The test plate was placed in a microplate reader (CellLux, PerkinElmer), a DMSO solution or HBSS buffer with an appropriate concentration of the test compound and the positive control was added, and 0.3 nM endothelin-1 or HBSS buffer (base control) was added after 5 minutes, and then the change in fluorescence intensity proportional to the concentration of Ca^2+ ions of […] was measured;
4. Results were shown as the percent inhibition of control response to 0.3 nM endothelin-1;
5. Standard positive control was BQ-788, several concentrations were tested in each experiments. The data was analyzed using Prism to generate a concentration-response curve, and IC50 values of the compounds were calculated.

[2] = biological target: T2, human ETA receptor (Homo sapiens, UniProt P25101); test: In vitro antagonistic effect against human ETA receptor, Ca2+ signal in SK-N-MC cells; format: cell-based; settings: for IC50: SK-N-MC cells, response to 1 nM endothelin-1; for ETA/ETB selectivity: ratio of ETB IC50 to ETA IC50
T2 construct: endogenously expressed human ETA receptors in SK-N-MC cells; host or cells: SK-N-MC cells
T2 sequence (P25101 21-427): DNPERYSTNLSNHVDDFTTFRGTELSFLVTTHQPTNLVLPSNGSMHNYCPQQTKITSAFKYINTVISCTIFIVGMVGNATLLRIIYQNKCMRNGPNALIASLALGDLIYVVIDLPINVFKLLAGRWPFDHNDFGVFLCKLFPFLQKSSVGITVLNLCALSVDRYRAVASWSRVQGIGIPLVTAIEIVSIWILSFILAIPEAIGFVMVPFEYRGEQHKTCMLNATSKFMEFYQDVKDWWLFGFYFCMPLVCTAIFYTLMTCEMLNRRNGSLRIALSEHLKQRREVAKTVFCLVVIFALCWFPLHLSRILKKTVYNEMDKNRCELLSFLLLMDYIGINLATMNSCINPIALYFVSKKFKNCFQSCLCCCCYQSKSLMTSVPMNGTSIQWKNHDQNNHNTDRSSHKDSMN
Description: Experimental Embodiment 1: In Vitro Test of Antagonistic Effect Against Human ETA Receptor
Antagonistic activity of the compounds against endogenously expressed human ETA receptors in SK-N-MC cells was evaluated by measuring the effect of compounds on the changes in cytoplasmic Ca^2+ ion signal induced by human ETA receptor agonists using fluorescence detection methods. The functional activity of the ETA receptor antagonistic effect was tested in Eurofins-Cerep SA according to current standard procedures.
1. Cells were suspended in Dulbecco's modified Eagle medium solution (DMEM, Invitrogen) supplemented with 1% FCSd, then distributed in 384-well plate (100 μL/well) at a density of 5×10^4 cells/well;
as §1, with “Hank's balanced salt solution (HBSS, Invitrogen)” for “HBSS buffer (Invitrogen)”, “4-(2-hydroxyethyl)piperazine-1-ethanesulfonic acid (Hepes, Invitrogen)” for “Hepes (Invitrogen)”
as §2, with “1” for “0.3”
5. Standard positive control was BQ-123, several concentrations were tested in each experiments. The data was analyzed using Prism to generate a concentration-response curve, and IC50 values of the compounds were calculated.

[3] = system: human liver microsomal cytochrome P450 isozyme (CYP1A2, CYP2C9, CYP2C19, CYP2D6 and CYP3A4); test: Human liver microsomal cytochrome P450 isozyme inhibition assay, summary over the main isozymes; format: in vitro ADME
Description: (§3) Experimental Embodiment 4: Human Liver Microsomal Cytochrome P450 Isozyme Inhibition Assay The purpose of the assay was to evaluate the inhibitory activity of the samples against human liver microsomal cytochrome P450 isozyme (CYP1A2, CYP2C9, CYP2C19, CYP2D6 and CYP3A4) using the 5-in-1 probe substrate of the CYP isozyme. Mixed human liver microsomes (HLM) were purchased from Corning Inc. (Steuben, N.Y., USA) and stored below −80° C. before use. The test compound working solution which has been diluted into serial concentrations was added to an incubation system containing human liver microsomes, probe substrates and circulating system cofactors, and a control containing solvent without the test compound was used as the enzyme activity control (100%). The concentration of the metabolite produced by the probe substrate in the sample was determined using a liquid chromatography-tandem mass spectrometry (LC-MS/MS) method. Nonlinear regression analysis was performed on the average percent activity versus concentration of subjects using SigmaPlot (V.11). The IC50 value was calculated by a three-parameter or four-parameter inverse-logarithmic equation.

[4] = biological target: T3, CYP2C9 (Homo sapiens, UniProt P11712); test: Human liver microsomal cytochrome P450 isozyme inhibition assay, CYP2C9; format: in vitro ADME; settings: human liver microsomes
T3 construct: Mixed human liver microsomes (HLM) were purchased from Corning Inc; tissue Corning Inc; host or cells: pooled human liver microsomes
T3 sequence (P11712 whole entry): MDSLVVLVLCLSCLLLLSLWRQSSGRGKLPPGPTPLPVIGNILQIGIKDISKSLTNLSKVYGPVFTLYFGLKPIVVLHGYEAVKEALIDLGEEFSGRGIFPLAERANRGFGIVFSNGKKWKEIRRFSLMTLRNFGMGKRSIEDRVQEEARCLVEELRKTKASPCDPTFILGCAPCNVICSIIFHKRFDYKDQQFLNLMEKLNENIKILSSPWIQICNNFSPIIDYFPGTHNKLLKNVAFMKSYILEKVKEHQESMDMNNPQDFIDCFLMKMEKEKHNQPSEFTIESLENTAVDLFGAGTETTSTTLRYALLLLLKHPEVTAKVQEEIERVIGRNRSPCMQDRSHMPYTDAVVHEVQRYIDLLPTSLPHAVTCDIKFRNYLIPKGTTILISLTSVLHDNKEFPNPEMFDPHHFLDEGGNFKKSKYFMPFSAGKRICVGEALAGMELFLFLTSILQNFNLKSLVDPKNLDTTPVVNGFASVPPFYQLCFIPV
Description: as §3

[5] = biological target: T4, CYP2C19 (Homo sapiens, UniProt P33261); test: Human liver microsomal cytochrome P450 isozyme inhibition assay, CYP2C19; format: in vitro ADME; settings: human liver microsomes
T4 construct: Mixed human liver microsomes (HLM) were purchased from Corning Inc; tissue Corning Inc; host or cells: pooled human liver microsomes
T4 sequence (P33261 whole entry): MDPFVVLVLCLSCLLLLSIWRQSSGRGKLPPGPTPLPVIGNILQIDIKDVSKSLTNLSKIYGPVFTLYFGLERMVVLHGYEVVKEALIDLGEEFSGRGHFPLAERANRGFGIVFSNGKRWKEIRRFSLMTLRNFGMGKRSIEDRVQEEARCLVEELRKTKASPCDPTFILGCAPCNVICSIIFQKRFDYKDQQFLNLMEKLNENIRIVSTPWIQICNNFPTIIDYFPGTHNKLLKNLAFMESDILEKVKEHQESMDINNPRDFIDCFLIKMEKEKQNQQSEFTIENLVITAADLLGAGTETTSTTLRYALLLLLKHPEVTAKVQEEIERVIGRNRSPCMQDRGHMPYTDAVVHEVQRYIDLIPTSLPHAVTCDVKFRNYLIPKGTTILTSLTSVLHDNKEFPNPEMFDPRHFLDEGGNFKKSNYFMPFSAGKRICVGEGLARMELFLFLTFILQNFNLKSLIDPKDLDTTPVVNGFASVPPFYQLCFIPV
Description: as §3

[6] = biological target: T5, CYP3A4 (Homo sapiens, UniProt P08684); test: Human liver microsomal cytochrome P450 isozyme inhibition assay, CYP3A4; format: in vitro ADME; settings: human liver microsomes
T5 construct: Mixed human liver microsomes (HLM) were purchased from Corning Inc; tissue Corning Inc; host or cells: pooled human liver microsomes
T5 sequence (P08684 whole entry): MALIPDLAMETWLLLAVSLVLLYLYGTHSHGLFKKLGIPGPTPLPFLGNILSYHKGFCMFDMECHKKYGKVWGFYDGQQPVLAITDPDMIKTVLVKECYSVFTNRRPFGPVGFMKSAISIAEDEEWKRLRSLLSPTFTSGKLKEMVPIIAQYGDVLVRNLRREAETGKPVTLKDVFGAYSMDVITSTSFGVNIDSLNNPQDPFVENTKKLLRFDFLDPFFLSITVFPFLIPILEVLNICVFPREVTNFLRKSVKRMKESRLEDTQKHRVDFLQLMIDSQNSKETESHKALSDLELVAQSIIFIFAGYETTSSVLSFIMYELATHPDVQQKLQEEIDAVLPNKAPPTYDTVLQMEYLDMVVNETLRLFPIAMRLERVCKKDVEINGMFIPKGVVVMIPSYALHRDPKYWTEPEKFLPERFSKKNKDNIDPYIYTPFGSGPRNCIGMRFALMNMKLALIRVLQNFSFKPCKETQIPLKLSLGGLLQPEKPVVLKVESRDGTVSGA
Description: as §3

[7] = biological target: T6, CYP1A2 (Homo sapiens, UniProt P05177); test: Human liver microsomal cytochrome P450 isozyme inhibition assay, CYP1A2; format: in vitro ADME; settings: human liver microsomes
T6 construct: Mixed human liver microsomes (HLM) were purchased from Corning Inc; tissue Corning Inc; host or cells: pooled human liver microsomes
T6 sequence (P05177 1-516): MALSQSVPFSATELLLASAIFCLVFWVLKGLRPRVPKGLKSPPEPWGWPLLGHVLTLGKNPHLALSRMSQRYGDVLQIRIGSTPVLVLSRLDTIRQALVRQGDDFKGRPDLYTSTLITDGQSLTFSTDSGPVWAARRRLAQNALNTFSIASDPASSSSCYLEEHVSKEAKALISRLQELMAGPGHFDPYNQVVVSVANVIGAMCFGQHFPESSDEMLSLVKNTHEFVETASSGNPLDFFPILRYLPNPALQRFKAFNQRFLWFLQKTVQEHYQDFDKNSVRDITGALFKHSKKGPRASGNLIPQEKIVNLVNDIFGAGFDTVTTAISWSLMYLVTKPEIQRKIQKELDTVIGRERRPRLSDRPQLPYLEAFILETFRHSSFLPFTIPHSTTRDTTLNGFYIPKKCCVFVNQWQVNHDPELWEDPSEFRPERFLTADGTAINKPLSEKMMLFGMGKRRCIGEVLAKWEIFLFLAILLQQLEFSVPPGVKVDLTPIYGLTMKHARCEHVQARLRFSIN
Description: as §3

[8] = biological target: T7, CYP2D6 (Homo sapiens, UniProt P10635); test: Human liver microsomal cytochrome P450 isozyme inhibition assay, CYP2D6; format: in vitro ADME; settings: human liver microsomes
T7 construct: Mixed human liver microsomes (HLM) were purchased from Corning Inc; tissue Corning Inc; host or cells: pooled human liver microsomes
T7 sequence (P10635 whole entry): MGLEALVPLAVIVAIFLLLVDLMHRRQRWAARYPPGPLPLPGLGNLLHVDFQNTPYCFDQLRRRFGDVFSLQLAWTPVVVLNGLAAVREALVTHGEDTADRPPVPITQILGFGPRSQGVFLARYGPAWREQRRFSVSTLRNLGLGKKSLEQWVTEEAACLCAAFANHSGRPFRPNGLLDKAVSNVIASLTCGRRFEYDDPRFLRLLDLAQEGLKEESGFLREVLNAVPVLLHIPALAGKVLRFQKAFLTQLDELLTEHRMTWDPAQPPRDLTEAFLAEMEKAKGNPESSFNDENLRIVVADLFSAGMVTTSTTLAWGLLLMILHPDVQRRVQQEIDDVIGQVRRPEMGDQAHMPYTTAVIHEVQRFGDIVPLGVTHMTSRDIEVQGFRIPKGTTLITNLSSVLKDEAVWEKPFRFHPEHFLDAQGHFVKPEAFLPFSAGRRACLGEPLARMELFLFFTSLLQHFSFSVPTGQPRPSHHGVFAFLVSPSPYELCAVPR
Description: as §3

IC50 [1]	IC50 [2]	ETA/ETB selectivity [2]	inhibitory effects on five main isozymes of CYP (in words) [3]	IC50 [4]	IC50 [5]	IC50 [6]	IC50 [7]	IC50 [8]	SMILES
110 µM	0.0014 µM	78500	very weak	> 50 µM	> 50 µM	> 50 µM	> 50 µM	> 50 µM	O=S(=O)(NCC1CC1)Nc1ncnc(OCCOc2ncc(Br)cn2)c1-c1ccc2scnc2c1 [WX005]
61 µM	0.0031 µM	19600	very weak	35 µM	> 50 µM	> 50 µM	> 50 µM	> 50 µM	CCCNS(=O)(=O)Nc1ncnc(OCCOc2ncc(Br)cn2)c1-c1ccc2ccnn2c1 [WX025]
